# Where “and” joins values, the source holds several entries; their conditions need not be identical. Equal entries are not always repeated.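 Interpolation was linear, between the two tested concentrations surrounding the appropriate level; five concentrations were tested over 48 hours in 96-well plates. Here, GI50 denotes the concentration required for 50% inhibition of growth. TGI: total growth inhibition.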
# Key:
# Assay in all cases: growth of human tumour cells (NCI), 48 h
# LOX IMVI melanoma = tested on: LOX IMVI melanoma
# K-562 leukemia = tested on: K-562 leukemia
# OVCAR-4 ovarian = tested on: OVCAR-4 ovarian
# MOLT-4 leukemia = tested on: MOLT-4 leukemia
# NCI-H522 lung = tested on: NCI-H522 lung
# SF-295 CNS = tested on: SF-295 CNS
# SNB-19 CNS = tested on: SNB-19 CNS
# A549 NSCLC = tested on: A549 NSCLC
# SNB-75 CNS = tested on: SNB-75 CNS
# T-47D breast = tested on: T-47D breast
Compound,GI50 (LOX IMVI melanoma) [µM],TGI (LOX IMVI melanoma) [µM],GI50 (K-562 leukemia) [µM],TGI (K-562 leukemia),GI50 (OVCAR-4 ovarian) [µM],TGI (OVCAR-4 ovarian),GI50 (MOLT-4 leukemia) [µM],GI50 (NCI-H522 lung) [µM],TGI (NCI-H522 lung),GI50 (SF-295 CNS) [µM],TGI (SF-295 CNS),GI50 (SNB-19 CNS) [µM],TGI (SNB-19 CNS),GI50 (A549 NSCLC) [µM],TGI (A549 NSCLC),GI50 (SNB-75 CNS) [µM],TGI (SNB-75 CNS) [µM],GI50 (T-47D breast) [µM],TGI (T-47D breast) [µM],TGI (MOLT-4 leukemia)
Cn1ccc2c(NCCN)c3c(c(NCCN)c21)C(=O)c1ccccc1C3=O,0.651,2,0.589,83.6 µM,9.46,30.8 µM,< 0.0429,0.498,4.92 µM,0.968,5.77 µM,20.5,47.2 µM,2.83,12.1 µM,18.9,44.5,27.4,62,–
CC(=O)C1CC2(c3ccc(C)cc3)C(c3ccc(C)cc3)=C(c3ccc(C)cc3)C1(c1ccc(C)cc1)S2=O (centres undefined),> 100,> 100,> 100,> 100 µM,79.9,> 100 µM,> 100,> 100,> 100 µM,85,> 100 µM,> 100,> 100 µM,> 100,> 100 µM,> 100,> 100,68,> 100,> 100 µM
CC([C@H]1CCC2C3CCC4C[C@@H](NC=O)CC[C@]4(C)C3CC[C@@]21C)N(C)C (some centres undefined),1.53,3.37,0.862,3.18 µM,4.72,23.1 µM,1.84,4.53,17.6 µM,2.14,5.58 µM,7.08,19.5 µM,3.32,11.5 µM,4.68,18.2,1.76,5.94,8.71 µM
O=C1/C(=C/c2ccc(O)c([N+](=O)[O-])c2)CCC/C1=C\c1ccc(O)c([N+](=O)[O-])c1,–,23.2,20.9,50 µM and 64.4 µM,4.34,50 µM and > 100 µM,17.4,1.49,22.6 µM and 3.08 µM,–,50 µM and > 100 µM,17.1,28.7 µM and 35.2 µM,25.5,32.4 µM and 91.7 µM,–,6.65,–,47.5,50 µM and 47 µM
CC(C)(C)C(=O)Nc1ccccc1I(=O)=O,> 100,> 100,> 100,> 100 µM,> 100,> 100 µM,> 100,> 100,> 100 µM,> 100,> 100 µM,> 100,> 100 µM,> 100,> 100 µM,> 100,> 100,> 100,> 100,> 100 µM
COc1ccc2c(c1)nc(N)c1c3cc(OC)c(OC)cc3cn21,–,18.4,< 0.01,11.7 µM,0.238,17.8 µM,0.281,< 0.01,–,–,16.2 µM,0.0967,19.1 µM,0.0925,16.6 µM,–,22.6,0.721,25.5,12.6 µM
COc1ccc(C2=NN(C(=O)COc3ccc(Cl)cc3)C(O)(c3cc(F)c(Cl)cc3Cl)C2)cc1OC (centres undefined),1.4,2.78,1.55,15.2 µM,2.26,6.97 µM,1.47,–,2.37 µM,–,11.8 µM,11.7,25.8 µM,6.24,18.7 µM,2.69,7.3,1.51,3.29,> 20.6 µM
C[C@@H]1O[C@@H](O[C@@H]2[C@@H](O)[C@H](OCCc3ccc(O)c(O)c3)O[C@H](COC(=O)/C=C/c3ccc(O)c(O)c3)[C@H]2O)[C@H](O)[C@H](O)[C@H]1O,18.3,34.4,36.7,> 100 µM,> 100,> 100 µM,> 100,> 100,> 100 µM,> 100,> 100 µM,> 100,> 100 µM,> 100,> 100 µM,> 100,> 100,> 100,> 100,> 100 µM
C=C1C[C@@H]2C/C=C/C(=O)C/C(C)=C\C=C\C(=O)O[C@H](C=O)C/C(C)=C/[C@H](C1)O2,0.711,13.5,0.16,> 40.2 µM,4.65,70 µM,2.72,4.48,19.5 µM,3.26,43.2 µM,4.34,24.8 µM,1.98,> 100 µM,0.294,1.96,1.42,54.3,13.7 µM
N#CC1=C(N)NC(=S)NC12Nc1ccccc1O2 (centres undefined),20.2,50.4,13.7,> 100 µM,52,> 100 µM,3.72,11.5,43.1 µM,38.4,> 100 µM,23.9,> 100 µM,37.2,> 100 µM,59.5,> 100,41.5,> 100,> 100 µM
Cc1cc(C)c(O)c(CNCCCCCCNCc2cc(C)cc(C)c2O)c1,1.48,2.88,1.61,3.55 µM,1.51,3.75 µM,1.72,1.78,3.67 µM,1.78,3.46 µM,1.98,4.59 µM,2.23,4.72 µM,1.33,2.63,1.5,3.36,3.9 µM
COc1c(C)c2c(c(O)c1C/C=C(\C)CCC(=O)OCCN1CCOCC1)C(=O)OC2,0.125,> 100,0.151,> 100 µM,0.576,> 76.7 µM,0.302,0.3,> 100 µM,0.323,> 100 µM,0.325,> 100 µM,0.289,> 100 µM,0.475,> 24.9,0.612,> 100,> 100 µM
Cc1cccc(C)c1NC(=O)/C(Cl)=C(/Cl)C(=O)O,–,34.3,–,17.4 µM,–,33.5 µM,–,–,8.92 µM,–,> 56.1 µM,–,> 70.1 µM,–,45.3 µM,–,43.4,–,66.2,27.5 µM

# Source: PubChem BioAssay (NCI)
